# Source: patent publication US20070191356A1, “Pyridobenzoxazine derivative” (priority 2004, published 2007)
# Read-outs that look alike come from different tables or passages of the source.
# How the values were obtained:
# K. pneumoniae, Type I = experiment: Antimicrobial activity MIC, standard method of Japanese Society of Chemotherapy; type: cell-based
# Procedure: (§1) The antimicrobial activity of the compounds of the present invention is measured in accordance with the standard method designated by Japanese Society of Chemotherapy and MIC (microgram/ml) values are shown as its results in Table 1.
# Ps. aeruginosa, 32104 = experiment: as above; type: cell-based
# Procedure: as §1
# Ps. aeruginosa, 32121 = experiment: as above; type: cell-based
# Procedure: as §1
# E. coli, NIHJ = experiment: as above; type: cell-based
# Procedure: as §1
# S. epidermidis, 56500 = experiment: as above; type: cell-based
# Procedure: as §1
# Ser. marcescens, 10100 = experiment: as above; type: cell-based
# Procedure: as §1
# S. flexneri, 2A 5503 = experiment: as above; type: cell-based
# Procedure: as §1
# Str. pyogenes, G-36 = experiment: as above; type: cell-based
# Procedure: as §1
# Pr. vulgalis, 08601 = experiment: as above; type: cell-based
# Procedure: as §1
# Str. pneumoniae, J24 = experiment: as above; type: cell-based
# Procedure: as §1
# S. maltophilia, IID-1275 = experiment: as above; type: cell-based
# Procedure: as §1
# S. aureus, 209P = experiment: as above; type: cell-based
# Procedure: as §1
# [1] = system: Str. faecalis, ATCC-19433; experiment: as above; type: cell-based
# Procedure: as §1
# S. aureus, 870307 = experiment: as above; type: cell-based
# Procedure: as §1
# Slc:ddY male mice = experiment: Single intravenous dosing toxicity test in mice; type: in vivo; conditions: single intravenous dose 150 mg/kg, six-week-old Slc:ddY male mice
# Procedure: The single intravenous dosing toxicity test in mice using the invention compound was carried out in the following manner. The compound was dissolved in and diluted with 0.1 mol/l NaOH/physiological saline. After the diluted solution was sterilized by filtration through a 0.22 μm filter of Millex GS, the resulting sterilized solution was intravenously administered to six-week-old Slc:ddY male mice at an administration rate of 10 ml/kg or 0.2 ml/min as a single dose. Similar to Test 1, the compound obtained in Example 2 of Patent Document 2 was employed as a comparative compound.
# [2] = Klebsiella pneumoniae, read-out: MIC
# [3] = Pseudomonas aeruginosa, 32104, Ps. aeruginosa, read-out: MIC
# [4] = Pseudomonas aeruginosa, 32121, Ps. aeruginosa, read-out: MIC
# [5] = Staphylococcus epidermidis, 56500, S. epidermidis, read-out: MIC
# [6] = Serratia marcescens, 10100, Ser. marcescens, read-out: MIC
# [7] = Streptococcus pneumoniae, J24, Str. pneumoniae, read-out: MIC
# [8] = Stenotrophomonas maltophilia, IID1275, S. maltophilia, read-out: MIC
# [9] = Staphylococcus aureus, read-out: MIC
# [10] = Enterococcus faecalis, ATCC19433, Str. faecalis, read-out: MIC
# [11] = Ps. aeruginosa, listed as Ex. 3
# [12] = Escherichia coli, read-out: MIC
# [13] = Shigella flexneri, 2A5503, S. flexneri, read-out: MIC
# [14] = Streptococcus pyogenes, G36, Str. pyogenes, read-out: MIC
# [15] = Staphylococcus aureus, 870307, S. aureus, read-out: MIC
SMILES,"MIC (K. pneumoniae, Type I; [2]) [µg/mL]","MIC (Ps. aeruginosa, 32104; [3]) [µg/mL]","MIC (Ps. aeruginosa, 32121; [4]) [µg/mL]","MIC (S. epidermidis, 56500; [5]) [µg/mL]","MIC (Ser. marcescens, 10100; [6]) [µg/mL]","MIC (Str. pneumoniae, J24; [7]) [µg/mL]","MIC (S. maltophilia, IID-1275; [8]) [µg/mL]","MIC (S. aureus, 209P; [9]) [µg/mL]","MIC [1, 10] [µg/mL]",melting point [°C],"MIC (E. coli, NIHJ; [12]) [µg/mL]","MIC (S. flexneri, 2A 5503; [13]) [µg/mL]","MIC (Str. pyogenes, G-36; [14]) [µg/mL]","MIC (Pr. vulgalis, 08601; read-out: MIC) [µg/mL]","MIC (S. aureus, 870307; [15]) [µg/mL]",other results
"C[C@H]1COc2c(N3CC(N)C(C(F)F)C3)c(F)cc3c(=O)c(C(=O)O)cn1c23 (single isomer, unassigned) [Example 2]",0.05,0.2,0.05,0.1,0.05,0.2,0.2,0.025,0.39,247 to 252,,,,,,"MIC (E. coli, NIHJ; listed as Ex. 2): ≦0.003 microgram/ml; MIC (S. flexneri, 2A 5503; S. flexneri, listed as Ex. 2): 0.012 microgram/ml; MIC (Str. pyogenes, G-36; Str. pyogenes, listed as Ex. 2): 0.2 microgram/ml; MIC (Pr. vulgalis, 08601; listed as Ex. 2): 0.012 microgram/ml; MIC (S. aureus, 870307; S. aureus, listed as Ex. 2): 1.56 microgram/ml"
"C[C@H]1COc2c(N3CC(N)C(C(F)F)C3)c(F)cc3c(=O)c(C(=O)O)cn1c23 (single isomer, unassigned) [Example 3]",,,,,,,,,,264 to 268,,,,,,"MIC (K. pneumoniae, Type I; listed as Ex. 3): 0.1 microgram/ml; MIC (Ps. aeruginosa, 32104; [11]): 0.39 microgram/ml; MIC (Ps. aeruginosa, 32121; [11]): 0.1 microgram/ml; MIC (E. coli, NIHJ; listed as Ex. 3): 0.012 microgram/ml; MIC (S. epidermidis, 56500; S. epidermidis, listed as Ex. 3): 0.2 microgram/ml; MIC (Ser. marcescens, 10100; Ser. marcescens, listed as Ex. 3): 0.1 microgram/ml; MIC (S. flexneri, 2A 5503; S. flexneri, listed as Ex. 3): 0.025 microgram/ml; MIC (Str. pyogenes, G-36; Str. pyogenes, listed as Ex. 3): 0.78 microgram/ml; MIC (Pr. vulgalis, 08601; listed as Ex. 3): 0.025 microgram/ml; MIC (Str. pneumoniae, J24; Str. pneumoniae, listed as Ex. 3): 0.39 microgram/ml; MIC (S. maltophilia, IID-1275; S. maltophilia, listed as Ex. 3): 0.39 microgram/ml; MIC (S. aureus, 209P; listed as Ex. 3): 0.05 microgram/ml; MIC ([1]; Str. faecalis, listed as Ex. 3): 0.78 microgram/ml; MIC (S. aureus, 870307; S. aureus, listed as Ex. 3): 3.13 microgram/ml"
"O=C(O)c1cn(C2CC2)c2cc(N3CCNCC3)c(F)cc2c1=O [CPFX, ciprofloxacin, reference compound]",0.025,0.005,0.025,0.2,0.025,0.1,0.78,0.1,0.78,,≤ 0.003,0.006,1.56,≤ 0.003,3.13,
"COc1c(N2C[C@H](CF)[C@H](N)C2)c(F)cc2c(=O)c(C(=O)O)cn(C3CC3)c12 [Comparative Compound, reference compound]",0.025,0.2,0.05,0.05,0.05,0.025,0.05,0.012,0.1,,≤ 0.003,0.006,0.1,0.006,0.39,"Number of deaths/total number (Slc:ddY male mice; 150 mg/kg): 3/5; Number of deaths/total number (Slc:ddY male mice; listed as comparative compound, 150 mg/kg): three of five mice died"
"C[C@H]1COc2c(N3C[C@H](CF)[C@H](N)C3)c(F)cc3c(=O)c(C(=O)O)cn1c23 [Example 1, 10-[3-(S)-Amino-4-(S)-fluoromethylpyrrolidin-1-yl]-9-fluoro-2,3-dihydro-3-(S)-methyl-7-oxo-7H-pyridol-[1,2,3-de][1,4]benzoxazine-6-carboxylic acid]",0.05,0.1,0.025,0.1,0.05,0.1,0.39,0.025,0.2,,0.006,0.012,0.2,0.012,1.56,Number of deaths/total number (Slc:ddY male mice): 0/5
"C[C@H]1COc2c(N3CCN(C)CC3)c(F)cc3c(=O)c(C(=O)O)cn1c23 [LVFX, levofloxacin, reference compound]",0.1,0.2,0.1,0.39,0.1,0.78,0.39,0.2,0.78,,0.12,0.025,0.2,0.012,> 6.25,
